The text below walks through data of patent US4110536A, “Derivatives of 5-(indol-3-yl)hydantoin” (Miles Laboratories, Inc., priority 1977, dated 1978).

Where two headings read alike, the source gives them in different places.

For data set [1], the system named is chloroform-induced arrhythmias. The following applies: mouse, in vivo, ip, 10 min.
Protocol: The antiarrhythmic activity of the compounds listed above were tested in the experimental model reported by J. W. Lawson (J. Pharmacol. Exp. Therap., 160: 22-31 (1968).
The test compounds were administered in varying intraperitoneal doses to groups consisting of 5 mice. Ten minutes after administration of a given dose of a compound, a mouse was transferred to a covered 300 ml glass beaker that contained a wad of cotton saturated with about 20 ml of chloroform. The animal was observed closely and removed from the beaker immediately after respiratory arrest. The heart was quickly exposed by making an incision through the abdomen, diaphragm, thorax and pericardium for visual inspection of ventricular rate and rhythm. Ventricular contractions were counted for 30 seconds. According to the procedure reported by Lawson, animals with ventricular rate not exceeding 100 contractions during the 30 second observation period were considered protected.
Another data set in a line: in vivo. The following applies: mouse, ip.
Data set [2] relates to ventricular arrhythmias induced by digitalis. The following applies: prior-art background; cited from earlier work.
The conditions of data set [3]: cited from earlier work.

Protocol for in vivo: (§1) LD50 data were obtained by standard procedures known to the art.
(§2) In order to obtain an indication of the specificity and/or safety margin of the antiarrhythmic effect, the acute toxicity of the compounds was investigated. This was carried out by administering log-spaced intraperitoneal doses of the test compounds to groups of five mice.
Protocol for mice: as §1, §2

As a reminder, the ED50 is the dose at which the effect has come halfway, by size or by number of responders. A high value points to weaker potency. For orientation: LD50 means the dose at which mortality reaches 50%. High values mean a less toxic substance, low ones a more toxic substance. Consider `O=C1NC(Cc2c[nH]c3ccccc23)C(=O)N1CCCN1CCCCC1` (stereo not shown) [Example 20, 5-(Indol-3-ylmethyl)-3-(3-piperidylpropyl)hydantoin], for which, in data set [1], the ED50 came out at 23.8 mg/kg. For the same compound, in “in vivo”, the LD50 at 48 h came out at 190 mg/kg and the selectivity ratio turned out to be 8.
“5-[(indol-3-yl)methyl]hydantoin [V (R=II)]” had an ED50 in data set [1] of 72 mg/kg. Besides, in the data set with mice (LD50/ED50, mouse, i.p.), the “Therapeutic Index” value is listed as 4.3. The LD50 in the data set on mice (mouse, in vivo, ip, 2880 min) amounted to 307 mg/kg.
In turn, `O=C1NC(Cc2c[nH]c3ccccc23)C(=O)N1CCCN1CCC(O)(c2ccccc2)CC1` (stereo not shown) [Example 13, 3-[3-(4-Hydroxy-4-phenylpiperid-1-yl)propyl]-5-[(indol-3-yl)methyl]hydantoi] displayed an ED50 in data set [1] of 23 mg/kg. In “in vivo”, the LD50 at 48 h is 57 mg/kg and the selectivity ratio was determined as 2.5.
For `O=C1NC(c2ccccc2)(c2c[nH]c3ccccc23)C(=O)N1CCCN1CCC(c2ccccc2)CC1` (stereo not shown) [Example 12, 5-(Indol-3-yl)-5-phenyl-3-[3-(4-phenyl-1-piperidyl)propyl]hydantoin], in that order: 80 mg/kg, 63 mg/kg and 0.9.
As to `O=C1NC(c2c[nH]c3ccccc23)C(=O)N1CCCN1CCCCC1` (stereo not shown) [Example 6, 5-(Indol-3-yl)-3-[3-(piperid-1-yl)propyl]hydantoin], in the data set “in vivo”, the median lethal dose (LD50) at 48 h was determined as 66 mg/kg and the selectivity ratio came to 3.1.
For `CCN(CC)CCCN1C(=O)NC(Cc2c[nH]c3ccc(Cl)cc23)C1=O` (stereo not shown) [Example 17, 5-(5-Chloroindol-3-ylmethyl)-3-(diethylaminopropyl)hydantoin], the ED50 in data set [1] came out at 44 mg/kg. Moreover, in “in vivo”, the LD50 at 48 h was determined as 74 mg/kg and the selectivity ratio is 1.7.
For `CCN(CC)CCCN1C(=O)NC(Cc2c[nH]c3ccc(OC)cc23)C1=O` (stereo not shown) [Example 18, 3-(3-Diethylaminopropyl)-5-(5-methoxyindol-3-ylmethyl)hydantoin], in that order: 13 mg/kg, 61 mg/kg and 4.7.
On to `O=C1NC(=O)C(c2ccccc2)(c2ccccc2)N1` [III, 5,5-diphenyl-2,4-imidazolidinedione], for which the ED50 in data set [1] was found to be 123 mg/kg. In data set [2], the “antiarrhythmic effects” value was “specifically antagonizes ventricular arrhythmias induced by digitalis, depresses ventricular automaticity, enhances atrio-ventricular nodal conduction, and reduces the effective refractory period”. Further, the “side effects / toxicity” value is “dizziness, nausea, emesis, nystigmus, and ataxia” in data set [3] (in vivo); “toxic and may produce atrio-ventricular blockage, bradycardia, or even cardiac arrest” in data set [3] (prior-art background, listed as DPH).
For `O=C1NC(Cc2c[nH]c3ccc(Cl)cc23)C(=O)N1CCCN1CCC(c2ccccc2)CC1` (stereo not shown) [Example 11, 5-(5-Chloroindol-3-ylmethyl)-3-[3-(4-phenyl-1-piperidyl)propyl]hydantoin], the 50% effect level in data set [1] (ED50) was put at a dose of 37 mg/kg. In the data set “in vivo”, the LD50 at 48 h was 69 mg/kg and the selectivity ratio came to 1.9.
As to `C=C[C@H]1C[N@@]2CC[C@H]1C[C@@H]2[C@@H](O)c1ccnc2ccc(OC)cc12` [Quinidine], in data set [3] (prior-art background), the “side effects / toxicity” value is “relatively toxic”.
Compound `C[N+]1(CCCN2C(=O)NC(Cc3c[nH]c4ccccc34)C2=O)CCC(c2ccccc2)CC1` (stereo not shown) [Example 10, 5-(Indol-3-ylmethyl)-3-[3-(4-phenyl-1-piperidyl)propyl]hydantoin methiodide] showed an ED50 in data set [1] of 19.6 mg/kg. Moreover, in “in vivo”, the LD50 at 48 h stood at 69 mg/kg and the selectivity ratio is 3.5.
`CCN(CC)CCCN1C(=O)NC(c2c[nH]c3ccccc23)C1=O` (stereo not shown) [Example 15, 3-(3-Diethylaminopropyl)-5-(indol-3-yl)hydantoin] gave an ED50 in data set [1] of 44 mg/kg. Besides, in the data set “in vivo”, the LD50 at 48 h is 79 mg/kg and the selectivity ratio worked out at 1.8.
`COc1ccc2[nH]cc(CC3NC(=O)N(CCCN4CCC(c5ccccc5)CC4)C3=O)c2c1` (stereo not shown) [Example 21, 5-(5-Methoxyindol-3-ylmethyl)-3-[3-(4-phenylpiperid-1-yl)propyl]hydantoin] came in with an ED50 in data set [1] of 9 mg/kg. Further, in “in vivo”, the LD50 at 48 h is 24 mg/kg and the selectivity ratio is 2.7.
The like results for `O=C1NC(Cc2c[nH]c3ccccc23)C(=O)N1CCCN1CCC(c2ccccc2)CC1` (stereo not shown) [Example 9, 5-(Indol-3-ylmethyl)-3-[3-(4-phenyl-1-piperidyl)propyl]hydantoin] were, in that order, 7.5 mg/kg, 19 mg/kg and 2.5.
The like results for `CCN(CC)CCCN1C(=O)NC(c2ccccc2)(c2c[nH]c3ccccc23)C1=O` (stereo not shown) [Example 14, 3-(3-Diethylaminopropyl)-5-(indol-3-yl)-5-phenylhydantoin] were, in that order, 27 mg/kg, 48 mg/kg and 1.8.
